Measured values as given in paper PMC8659057, “Chemical Constituents from the Wild Atractylodes macrocephala Koidz and Acetylcholinesterase Inhibitory Activity Evaluation as Well as Molecular Docking Study” (Molecules, 2021).
Like-named read-outs stand apart in the source and are kept apart here.

Molecular target: acetylcholinesterase (AChE, Type VI-S, from electric eel) (Electrophorus electricus, UniProt O42275)
Experiment: modified Ellman colorimetric AChE inhibition assay
Assay type: biochemical

acetylcholinesterase (AChE, Type VI-S, from electric eel), sequence (O42275 24-633): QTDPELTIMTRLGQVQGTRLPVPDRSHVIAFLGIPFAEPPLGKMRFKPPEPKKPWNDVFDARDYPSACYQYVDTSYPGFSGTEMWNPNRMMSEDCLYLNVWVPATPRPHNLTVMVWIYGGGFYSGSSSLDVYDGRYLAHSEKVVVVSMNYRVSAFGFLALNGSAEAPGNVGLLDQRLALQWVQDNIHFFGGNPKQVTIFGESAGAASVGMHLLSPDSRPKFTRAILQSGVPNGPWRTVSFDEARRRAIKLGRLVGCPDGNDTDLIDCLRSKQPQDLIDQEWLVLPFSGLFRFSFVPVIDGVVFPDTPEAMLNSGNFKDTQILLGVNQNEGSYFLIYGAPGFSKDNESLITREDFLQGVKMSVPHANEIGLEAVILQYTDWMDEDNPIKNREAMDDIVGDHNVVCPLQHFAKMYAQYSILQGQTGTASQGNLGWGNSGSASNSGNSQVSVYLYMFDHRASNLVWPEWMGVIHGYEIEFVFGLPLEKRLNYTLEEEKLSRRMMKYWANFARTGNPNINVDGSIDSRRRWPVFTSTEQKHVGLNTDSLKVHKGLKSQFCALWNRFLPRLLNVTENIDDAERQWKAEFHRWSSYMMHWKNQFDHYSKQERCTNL

SMILES | IC50 (read-out: IC50 (converted)) | IC50
C=C1CCC[C@]2(C)C[C@]3(O)OC(=O)C(C)=C3C[C@@H]12 [compound 1, atractylenolide III] | 247 µM | 
C=C1C(OC(C)=O)CCC2(C)CC3(C45CC6(C)CCC(OC(C)=O)C(=C)C6CC4=C(C)C(=O)O5)OC(=O)C(C)=C3CC12 (centres unmarked) [compound 5, biatractylenolide II] |  | 33.9 µM
